Data on twelve compounds can be found in ChEMBL document CHEMBL1201862, “PubChem BioAssay data set” (2004).

Some test systems named below: HCC 2998; SW-620; K562; UACC-62; MOLT-4; OVCAR-3; UO-31; SF-295; HOP-92; SNB-75; SN12C; A498; OVCAR-4; KM12; HOP-62; M14; SF-268; LOX IMVI.
Assay in all cases: inhibition of tumour cell growth, NCI panel, 48 h

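Dose response: 5 concentrations. Exposure: 48 h. Format: 96-well plates. Endpoint: linear interpolation; highest concentration if not reached. The concentration for 50% growth inhibition is given as GI50.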 Activity calls are given as the source filed them. Cut-off read from the data, not from the text of the source: active = GI50 up to about 1.1 µM and inactive = higher.

Turning to `COC12CCC(=O)C=C1c1ccccc1N2C(C)=O` (stereo unspecified), the GI50 with HCC 2998, in the test on SW-620, in the test on K562, in the test with UACC-62, in the test on MOLT-4 and in the test with OVCAR-3 was > 100 µM (inactive) throughout. The GI50 in the test on UO-31 was > 100 µM (inactive); in the test with SF-295, > 100 µM (inactive); in the test with HOP-92 it was < 0.01 µM (active); in the test on SNB-75, > 100 µM (inactive); in the test with SN12C, > 100 µM (inactive); with A498, > 100 µM (inactive). Moreover, the GI50 with OVCAR-4, in the test on KM12 and in the test on HOP-62 was > 100 µM (inactive) throughout.
In the case of `O=C(Nc1ccccc1-c1nn(CO)c(=S)n(CO)c1=O)C(F)(F)F`, the GI50 in the test on HCC 2998, in the test with M14, with SW-620, in the test on K562, in the test on UACC-62 and in the test with MOLT-4 was > 100 µM (inactive) each time. The GI50 in the test with OVCAR-3 was > 100 µM (inactive); in the test with UO-31 it was > 100 µM (inactive); with SF-268 it was > 100 µM (inactive); in the test on SF-295, > 100 µM (inactive); in the test on HOP-92, > 100 µM (inactive); with SNB-75, 92.3 µM (inactive). The GI50 with SN12C, with OVCAR-4, with LOX IMVI, with KM12 and in the test with HOP-62 was > 100 µM (inactive) each time.
Consider `COc1cc(CC(C(=O)O)C(=O)O)c(OC)cc1CC(C(=O)O)C(=O)O`, for which the GI50 in the test on M14, in the test on SW-620, in the test with K562, in the test with UACC-62, in the test on MOLT-4 and in the test with OVCAR-3 was > 100 µM (inactive) each time. Further, the GI50 in the test on UO-31, in the test on SF-268, in the test with SF-295, with HOP-92, in the test with SNB-75 and in the test with SN12C was > 100 µM (inactive) throughout. In addition, the GI50 in the test on A498, with OVCAR-4, in the test on LOX IMVI, in the test on KM12 and in the test on HOP-62 was > 100 µM (inactive) each time.
With `Cc1nc2c(ccc3ncccc32)[nH]1`, the GI50 with HCC 2998, with M14, with SW-620, in the test on K562, in the test with UACC-62 and in the test on MOLT-4 was > 100 µM (inactive) in each case. In addition, the GI50 in the test on OVCAR-3, with UO-31, in the test on SF-268, in the test on SF-295, in the test on HOP-92 and in the test with SNB-75 was > 100 µM (inactive) each time. Also, the GI50 in the test with SN12C, in the test with OVCAR-4, with LOX IMVI, in the test on KM12 and with HOP-62 was > 100 µM (inactive) in each case.
With `CCOC(=O)C(=O)Nc1ccc(Cl)c(C(F)(F)F)c1`, the GI50 with HCC 2998, in the test with M14, with SW-620, in the test on K562, with UACC-62 and with MOLT-4 was > 100 µM (inactive) each time. The GI50 in the test on OVCAR-3 is > 100 µM (inactive); with UO-31 it was > 100 µM (inactive); with SF-268, > 100 µM (inactive); with SF-295 it was > 100 µM (inactive); in the test on HOP-92, < 0.01 µM (active); with SNB-75, > 100 µM (inactive). In addition, the GI50 in the test on SN12C, in the test with OVCAR-4, in the test on LOX IMVI and in the test with HOP-62 was > 100 µM (inactive) in each case.
Take `O=C1c2c(nc3ccccc3c2-c2ccccc2)CN1Nc1ccccc1`: the GI50 in the test with HCC 2998, with M14, in the test with SW-620, in the test with K562, with UACC-62 and in the test on MOLT-4 was > 100 µM (inactive) in each case. Moreover, the GI50 in the test with OVCAR-3, in the test on UO-31, in the test with SF-268, in the test on HOP-92, in the test on SN12C and in the test on OVCAR-4 was > 100 µM (inactive) each time. Moreover, the GI50 is > 100 µM (inactive) with LOX IMVI, > 100 µM (inactive) in the test with KM12 and 53.8 µM (inactive) with HOP-62.
Consider `COC/C=C\COC`, for which the GI50 in the test on HCC 2998, in the test with M14, in the test with SW-620, in the test on K562, with UACC-62 and in the test on MOLT-4 was > 100 µM (inactive) each time. Moreover, the GI50 with OVCAR-3, in the test on UO-31, in the test on SF-295, in the test on HOP-92, with SNB-75 and in the test on SN12C was > 100 µM (inactive) each time. For the same compound, the GI50 in the test on OVCAR-4, in the test with LOX IMVI, in the test on KM12 and in the test on HOP-62 was > 100 µM (inactive) throughout.
On to `CCCCCCCCCc1cc(=O)c2ccc(O)cc2o1`, for which the GI50 in the test on M14 is > 100 µM (inactive); with SW-620, 67.6 µM (inactive); in the test with K562, 14.5 µM (inactive); with UACC-62 it was > 100 µM (inactive); in the test with MOLT-4, 23.6 µM (inactive); in the test with OVCAR-3, 9.38 µM (inactive). Further, the GI50 was 8.85 µM (inactive) in the test with UO-31; 44.8 µM (inactive) with SF-268; 47 µM (inactive) with SF-295; 16.4 µM (inactive) in the test with HOP-92; 17.2 µM (inactive) in the test on SNB-75; > 100 µM (inactive) with SN12C. Further, the GI50 was 22.3 µM (inactive) with OVCAR-4, 40.2 µM (inactive) in the test on LOX IMVI, 46.9 µM (inactive) with KM12 and > 100 µM (inactive) with HOP-62.
In the case of `c1ccc2c(c1)C1CCCCCC21N1CCOCC1` (stereo unspecified), the GI50 in the test on HCC 2998 is > 100 µM (inactive); in the test on M14 it was 98.2 µM (inactive); in the test with SW-620, > 100 µM (inactive); in the test with K562, 45.1 µM (inactive); with UACC-62, > 100 µM (inactive); in the test on MOLT-4 it was 32.6 µM (inactive). In addition, the GI50 in the test with OVCAR-3 is 20.6 µM (inactive); in the test with UO-31, > 100 µM (inactive); in the test on SF-268, > 100 µM (inactive); in the test on SF-295, > 100 µM (inactive); in the test with SNB-75, 34.8 µM (inactive); in the test on SN12C, > 100 µM (inactive). The GI50 is > 100 µM (inactive) in the test on A498; 91 µM (inactive) in the test on OVCAR-4; > 100 µM (inactive) in the test on LOX IMVI; > 100 µM (inactive) in the test with KM12; > 100 µM (inactive) in the test with HOP-62.
Regarding `CC(C)N1C(C)[C@@H](c2ccccc2)O[P@@]1(=O)CC1=CCCCC1` (stereo partly specified), the GI50 is > 100 µM (inactive) with HCC 2998; > 100 µM (inactive) in the test on M14; > 100 µM (inactive) in the test on SW-620; 48.6 µM (inactive) with K562; 47.1 µM (inactive) in the test on UACC-62; 80.7 µM (inactive) in the test on MOLT-4. Moreover, the GI50 with OVCAR-3 was 79.3 µM (inactive); in the test on UO-31, > 100 µM (inactive); in the test on SF-268, > 100 µM (inactive); in the test with SF-295 it was 57 µM (inactive); with HOP-92, 45.8 µM (inactive); in the test on SNB-75, > 100 µM (inactive). The GI50 in the test with SN12C, with A498, with LOX IMVI, in the test on KM12 and in the test on HOP-62 was > 100 µM (inactive) in each case.
On to `COc1cc(C2c3cc4c(cc3[C@@H](OCCN(C)C)C3COC(=O)[C@H]23)OCO4)cc(OC)c1O` (stereo partly specified), for which the GI50 was 0.384 µM (active) in the test with M14; 0.579 µM (active) with SW-620; 0.562 µM (active) in the test with K562; 0.243 µM (active) with UACC-62; 0.0165 µM (active) in the test on MOLT-4; 1.76 µM (inactive) with OVCAR-3. Besides, the GI50 in the test on UO-31 is 0.519 µM (active); in the test with SF-268 it was 0.33 µM (active); in the test on SF-295, 0.145 µM (active); with HOP-92 it was 0.196 µM (active); in the test on SNB-75, 0.769 µM (active); in the test on SN12C it was 0.151 µM (active). The GI50 is 0.167 µM (active) with A498; 2.07 µM (inactive) with OVCAR-4; 0.145 µM (active) in the test on LOX IMVI; 0.723 µM (active) with KM12; 0.045 µM (active) in the test with HOP-62.
Take `CC1CC2(CC[C@@H]1O)OCCO2` (stereo partly specified): the GI50 in the test with HCC 2998, with M14, in the test with SW-620, in the test on K562, in the test with UACC-62 and in the test with MOLT-4 was > 100 µM (inactive) each time. Further, the GI50 in the test on OVCAR-3, with UO-31, in the test with SF-295, in the test with HOP-92, in the test with SN12C and in the test on A498 was > 100 µM (inactive) in each case. Besides, the GI50 with OVCAR-4, in the test on LOX IMVI, with KM12 and in the test on HOP-62 was > 100 µM (inactive) throughout.
